Results: patent US12415771B2, “Compounds for the treatment of neuromuscular disorders” (NMD PHARMA A/S, priority 2019, dated 2025)
Like-named read-outs stand apart in the source and are kept apart here.

How the values were obtained:
[1] = target: T1, CIC-1 ion channel (Rattus norvegicus, UniProt P35524); experiment: Electrophysiological measurement (Gm, three micro-electrode technique) of compound inhibition of CIC-1 in rat soleus muscle fibres; type: cell-based; details: whole rat soleus muscle, Gm at four increasing concentrations, approx. 30° C., mean ± spread
T1 construct: from tissue; host or cells: intact soleus muscle of 12-14 week old Wistar rats
T1 sequence (P35524 1-994): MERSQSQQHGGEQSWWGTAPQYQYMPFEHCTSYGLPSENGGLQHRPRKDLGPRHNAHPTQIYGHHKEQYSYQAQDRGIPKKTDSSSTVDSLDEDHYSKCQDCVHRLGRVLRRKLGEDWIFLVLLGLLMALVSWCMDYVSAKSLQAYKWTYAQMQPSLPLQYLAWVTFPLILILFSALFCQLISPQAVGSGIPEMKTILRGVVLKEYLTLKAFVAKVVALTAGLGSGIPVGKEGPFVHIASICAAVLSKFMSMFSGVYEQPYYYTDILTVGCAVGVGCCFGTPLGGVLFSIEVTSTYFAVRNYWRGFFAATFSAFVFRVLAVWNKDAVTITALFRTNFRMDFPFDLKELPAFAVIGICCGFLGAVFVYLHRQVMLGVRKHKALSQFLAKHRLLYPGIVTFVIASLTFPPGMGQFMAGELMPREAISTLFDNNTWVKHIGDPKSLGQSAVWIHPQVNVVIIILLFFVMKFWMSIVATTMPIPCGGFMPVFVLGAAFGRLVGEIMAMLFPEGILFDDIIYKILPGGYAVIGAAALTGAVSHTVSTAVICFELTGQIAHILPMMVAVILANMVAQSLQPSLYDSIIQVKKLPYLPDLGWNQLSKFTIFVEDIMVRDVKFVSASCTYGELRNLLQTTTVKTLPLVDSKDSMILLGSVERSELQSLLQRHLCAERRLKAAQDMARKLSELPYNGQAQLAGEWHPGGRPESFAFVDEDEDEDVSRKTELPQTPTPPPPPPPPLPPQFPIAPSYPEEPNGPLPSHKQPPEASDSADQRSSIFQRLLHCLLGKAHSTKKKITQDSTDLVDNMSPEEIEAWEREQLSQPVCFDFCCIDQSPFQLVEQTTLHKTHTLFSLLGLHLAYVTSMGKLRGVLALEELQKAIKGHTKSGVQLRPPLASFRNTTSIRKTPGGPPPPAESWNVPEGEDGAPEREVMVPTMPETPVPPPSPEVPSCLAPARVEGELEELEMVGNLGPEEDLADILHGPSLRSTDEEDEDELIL

[2] = test system: isolated rat soleus muscles; experiment: Recovery of nerve-stimulated contractile force in isolated rat soleus nerve-muscle preparation exposed to tubocurarine; details: 40 min, read-out: Point increase (%) of initial force that was restored
Protocol: Recovery of force is quantified as the percentage of the force prior to tubocurarine that is recovered by the compound.
The current disclosure relates to compounds that inhibit CIC-1 ion channels and increase muscle excitability and thereby improve muscle function in clinical conditions where muscle activation is failing. Such conditions result in loss of contractile function of skeletal muscle, weakness and excessive fatigue. In this series of experiments the compounds were tested for their ability to restore contractile function of isolated rat muscle when the neuromuscular transmission had been compromised akin to neuromuscular disorders.
Experimentally, soleus muscles from 4-5 wk old rats were isolated with the motor nerve remaining attached. The nerve-muscle preparations were mounted in experimental setups that enabled electrical stimulation of the motor nerve. Stimulation of the motor nerve led to activation of the muscle fibres and ensuing force production that was recorded.
After mounting the nerve-muscle preparation in the experimental setup, the contractile function of the muscle was initially assessed under the control conditions (FIG. 2A). […] The experimental condition mimics the failing neuromuscular transmission in a range of neuromuscular disorders. After addition of tubocurarine the contractile force declined over the next 90 mins to 10-50% of the control force. 50 μM of the test compound was then added and the contractile force recovered despite the continued presence of tubocurarine. To quantify the ability of the compound to restore force the percentage of the initial force that was restored was determined after 40 mins of compound exposure (FIG. 2B) and the point increase is reported in Table 3.

[3] = test system: female Lewis rats; experiment: In situ isometric hindlimb force in anaesthetised rats under partial neuromuscular block by Cisatracurium; type: in vivo; details: Rattus norvegicus, iv, read-out: increase in tetanic force
Protocol: Isometric hindlimb force was measured in 12-week old female Lewis rats in the presence and absence of compound.
Rats were placed under anesthesia with isoflurane (2-4%), intubated and subsequently connected to a micro ventilator (Microvent 1, Hallowell EMC, US). Two stimulation electrodes were inserted through the skin to stimulate the sciatic nerve. A small incision was made proximal to the ankle, to expose the Achilles tendon, which was tied by cotton string, and connected to a force transducer (Fort250, World Precision Instruments) with adjustable position (Vernier control). The Achilles tendon was then cut distal to the attached cotton string. The rat was placed on a heated pad, and to prevent movement artefacts from contraction of the ankle dorsiflexors, the foot was fixated by tape on a footplate.
Muscle contractile properties were assessed by applying an electrical current (under supramaximal voltage conditions) to the nerve and recording the force generated by the muscle. The muscle was stretched until maximal force was obtained, when assessed by 2 Hz stimulation. Isometric force was measured every 30 seconds at 12 Hz (Twitch), 10 pulses, and at every 5 minutes at 80 Hz (Tetanic) for 1 second (80 pulses). This stimulation pattern was employed throughout the experiment, expect in few cases where 80 Hz stimulation was replaced by 12 Hz (10 pulses). […] When the level of neuromuscular inhibition was stable, the test article was injected i.v. at the chosen concentration. The effect of test article was assessed on its ability to increase force generated from the stimulation pattern applied. The effect was assessed in the ability to increase force per se (tetanic, 80 Hz, stimulation), and the ratio between individual twitch peaks (12 Hz stimulation). The effect was monitored for at least 1 hour after injection of test article. In addition, the time from injection of test article to maximal effect on force (both twitch and tetanic) was noted and the time for the effect to disappear (return to baseline), if possible. When appropriate the infusion of neuromuscular blocking agent was ceased, with the stimulation pattern continued, and the return of force to control levels was monitored. Animals were sacrificed by cervical dislocation while still fully sedated.

[4] = test system: isolated rat soleus muscles; experiment: Recovery of nerve-stimulated contractile force in isolated rat soleus nerve-muscle preparation exposed to tubocurarine; details: FIG. 2: 50 μM compound added after 90 min incubation in tubocurarine, 3 muscles
[5] = 50 μM test compound, after 40 mins exposure, 115 nM tubocurarine for 90 mins, rat soleus

| Structure (SMILES) | EC50 [1] | activation at 50 µM [2, 5] | activation at 50 µM ([2]; Rattus norvegicus) | also measured |
| --- | --- | --- | --- | --- |
| CCC(F)(F)c1cc(Br)ccc1O[C@@H](C)C(=O)O [Compound A-3, (2S)-2-[4-bromo-2-(1,1-difluoropropyl)phenoxy]propanoic acid] | 3.5 ± 0.4 µM | 54% |  | change in vivo at 17.5 mg/kg ([3]; 17.5 mg/kg i.v., 80 Hz stimulation, Cisatracurium block): 64%; average force (AUC) relative to initial force [4]: recovered |
| CCC(F)(F)c1cc(Cl)ccc1O[C@@H](CF)C(=O)O [Compound A-22, (2R)-2-[4-chloro-2-(1,1-difluoropropyl)phenoxy]-3-fluoropropanoic acid] | 3.3 ± 1.2 µM |  | 65% | change in vivo at 10.4 mg/kg [3]: 57% |
| C#Cc1ccc(O[C@@H](C)C(=O)O)c(C(F)(F)CC)c1 [Compound A-23, (2S)-2-[2-(1,1-difluoropropyl)-4-ethynylphenoxy]propanoic acid] | 6.1 ± 1.1 µM | 37% |  | change in vivo at 18.8 mg/kg ([3]; 18.8 mg/kg i.v., 80 Hz stimulation, Cisatracurium block): 40% |
| C[C@H](Oc1cc(F)c(Br)cc1C(C)(F)F)C(=O)O [Compound A-29, (2S)-2-[4-bromo-2-(1,1-difluoroethyl)-5-fluorophenoxy]propanoic acid] | 5.5 ± 1.7 µM |  | 46% | change in vivo at 22.9 mg/kg [3]: 76% |
| CCC(F)(F)c1cc(Br)c(F)cc1OCC(=O)O [Compound A-31, 2-[4-bromo-2-(1,1-difluoropropyl)-5-fluorophenoxy]acetic acid] | 5.5 ± 0.2 µM | 43% |  | change in vivo at 11.4 mg/kg ([3]; 11.4 mg/kg i.v., 80 Hz stimulation, Cisatracurium block): 14% |
| CCC(F)(F)c1cc(Cl)c(F)cc1O[C@@H](C)C(=O)O [Compound A-32, (2S)-2-[4-chloro-2-(1,1-difluoropropyl)-5-fluorophenoxy]propanoic acid] | 2.3 ± 0.6 µM |  | 41% | change in vivo at 11.2 mg/kg [3]: 75% |
